Experimental findings from patent US20150299125A1, “PRODRUG BIPYRIDYLAMINOPYRIDINES AS SYK INHIBITORS” (MERCK SHARP & DOHME CORP., priority 2012, published 2015) are described below.

pIC50: −log10 of the molar value.

This experiment concerns the target T1, recombinant human GST-Syk (Homo sapiens, UniProt P43405).
T1 construct: purchased Carna Biosciences 08-176
Put plainly: Homogeneous Time-Resolved Fluorescence (HTRF) assay for the recombinant human Syk enzyme. The format is biochemical. Particulars: recombinant human GST-Syk 5 pM, ATP 25 μM, read-out: IC50. On the procedure:
Syk inhibition of the compounds of Formula (I) may be determined using the following assay protocol: Homogeneous Time-Resolved Fluorescence (HTRF) Assay for the Recombinant Human Syk Enzyme: A recombinant GST-hSyk fusion protein was used to measure potency of compounds to inhibit human Syk activity. […] Final volume of the reaction was 10 μL. Phosphorylation of the peptide was allowed to proceed for 45' at room temperature. To quench the reaction and detect the phosphorylated product, 2 nM of a Europium-anti-phosphotyrosine antibody (Perkin Elmer #AD0161) and 70 nM SA-APC (Perkin-Elmer #CR130-100) were added together in 15 mM Tris pH 7.5, 40 mM EDTA, 0.01% tween 20. Final volume of the quenching solution was 10 μL. The resulting HTRF signal was measured after 30 minutes on a EnVision (Perkin-Elmer) reader using a time-resolved fluorescence protocol.
On the technique in general: TR-FRET usually uses a lanthanide donor and a delayed reading to cut background.
Take `Cc1cc(Nc2cc(C(F)F)ccn2)nc(-c2ccc([C@](C)(O)[C@H]3CC[C@H](C(=O)OCOC(=O)OCCOCc4ccccc4)CC3)nc2)c1` [Example 2-3, ({[2-(benzyloxy)ethoxy]carbonyl}oxy) methyl trans-4-[(1R)-1-(6-{[4-(difluoromethyl)pyridin-2-yl]amino}-4-methyl-2,3′-bipyridin-6′-yl)-1-hydroxyethyl]cyclo hexanecarboxylate]: the pIC50 is 8.21. `CC(=O)N[C@@H](CC(C)C)C(=O)OCOC(=O)[C@H]1CC[C@H]([C@@](C)(O)c2ccc(-c3cc(C)cc(Nc4cc(C(F)F)ccn4)n3)cn2)CC1` [Example 3-7, [({trans-4-[(1R)-1-(6-{[4-(difluoromethyl)pyridin-2-yl]amino}-4-methyl-2,3′-bipyridin-6′-yl)-1-hydroxyethyl]cyclohexyl}carbonyl)oxy]methyl N-acetyl-L-leucinate]: the pIC50 is 7.90. Regarding `Cc1cc(Nc2cc(C(F)F)ccn2)nc(-c2ccc([C@](C)(O)[C@H]3CC[C@H](C(=O)OCOC(=O)OCc4nccn4C)CC3)nc2)c1` [Example 2-13, ({[(1-methyl-1H-imidazol-2-yl)methoxy]carbonyl}oxy)methyl trans-4-[(1R)-1-(6-{[4-(difluoromethyl)pyridin-2-yl]amino}-4-methyl-2,3′-bipyridin-6′-yl)-1-hydroxyethyl]cyclo hexanecarboxylate], the pIC50 is 7.46. Under `CC[N+](CC)(COC(=O)[C@H]1CC[C@H]([C@@](C)(O)c2ccc(-c3cc(C)cc(Nc4cc(C(F)F)ccn4)n3)cn2)CC1)C1CCCCC1` [Example 5-22, N-{[({trans-4-[(1R)-1-(6-{[4-(difluoromethyl)pyridin-2-yl]amino}-4-methyl-2,3′-bipyridin-6′-yl)-1-hydroxyethyl]cyclohexyl}carbonyl)oxy]methyl}-N,N-diethylcyclohexanaminium] stands 9.05. Under `Cc1cc(Nc2cc(C(F)F)ccn2)nc(-c2ccc([C@](C)(O)[C@H]3CC[C@H](C(=O)OCOC(=O)c4cnn(C)c4)CC3)nc2)c1` [Example 3-8, [({trans-4-[(1R)-1-(6-{[4-(difluoromethyl)pyridin-2-yl]amino}-4-methyl-2,3′-bipyridin-6′-yl)-1-hydroxyethyl]cyclohexyl}carbonyl)oxy]methyl 1-methyl-1H-pyrazole-4-carboxylate] stands 8.08; under `Cc1cc(Nc2cc(C(F)F)ccn2)nc(-c2ccc([C@](C)(O)[C@H]3CC[C@H](C(=O)OCOC(=O)OCC[S+](C)[O-])CC3)nc2)c1` (single isomer, unassigned) [Example 7-5], 9.22. Next, `Cc1cc(Nc2cc(C(F)F)ccn2)nc(-c2ccc([C@](C)(O)[C@H]3CC[C@H](C(=O)OC[N+](C)(C)C(C)c4ccccc4)CC3)nc2)c1` (stereo partly drawn) [Example 5-15, N-{[({trans-4-[(1R)-1-(6-{[4-(difluoromethyl)pyridin-2-yl]amino}-4-methyl-2,3′-bipyridin-6′-yl)-1-hydroxyethyl]cyclohexyl}carbonyl)oxy]methyl}-N,N-dimethyl-1-phenylethanaminium]: greater than 9.30. As to `CCCC[N+](C)(CCCC)COC(=O)[C@H]1CC[C@H]([C@@](C)(O)c2ccc(-c3cc(C)cc(Nc4cc(C(F)F)ccn4)n3)cn2)CC1` [Example 5-18, N-butyl-N-{[({trans-4-[(1R)-1-(6-{[4-(difluoromethyl)pyridin-2-yl]amino}-4-methyl-2,3′-bipyridin-6′-yl)-1-hydroxyethyl]cyclohexyl}carbonyl)oxy]methyl}-N-methylbutan-1-aminium], the pIC50 was 8.85.

As for `Cc1cc(Nc2cc(C(F)F)ccn2)nc(-c2ccc([C@](C)(O)[C@H]3CC[C@H](C(=O)OC[N+]4(CC#N)CCCCC4)CC3)nc2)c1` [Example 5-16, 1-(cyanomethyl)-1-{[({trans-4-[(1R)-1-(6-{[4-(difluoromethyl)pyridin-2-yl]amino}-4-methyl-2,3′-bipyridin-6′-yl)-1-hydroxyethyl]cyclohexyl}carbonyl)oxy]methyl}piperidinium], the pIC50 was 9.22.

As to `Cc1cc(Nc2cc(C(F)F)ccn2)nc(-c2ccc([C@](C)(O)[C@H]3CC[C@H](C(=O)OCC(C)(C)O)CC3)nc2)c1` [Example 1-1, 2-Hydroxy-2-methylpropyl trans-4-[(1R)-1-(6-{[4-(difluoromethyl)pyridin-2-yl]amino}-4-methyl-2,3′-bipyridin-6′-yl)-1-hydroxyethyl]cyclohexanecarboxylate], the pIC50 was 8.09.

For the compound `Cc1cc(Nc2cc(C(F)F)ccn2)nc(-c2ccc([C@](C)(O)[C@H]3CC[C@H](C(=O)OC(C)OC(=O)c4cnn(C)c4)CC3)nc2)c1` (single isomer, unassigned) [Example 3-2b], the pIC50 was 7.65.

Consider `Cc1cc(Nc2cc(C(F)F)ccn2)nc(-c2ccc([C@](C)(O)[C@H]3CC[C@H](C(=O)OCOC(=O)OCCC(=O)N(C)C)CC3)nc2)c1` [Example 2-12, ({[3-(dimethylamino)-3-oxopropoxy]carbonyl}oxy)methyl trans-4-[(1R)-1-(6-{[4-(difluoromethyl)pyridin-2-yl]amino}-4-methyl-2,3′-bipyridin-6′-yl)-1-hydroxyethyl]cyclo hexanecarboxylate], for which the pIC50 was 8.82. For `CSCCOC(=O)OCOC(=O)[C@H]1CC[C@H]([C@@](C)(O)c2ccc(-c3cc(C)cc(Nc4cc(C(F)F)ccn4)n3)cn2)CC1` [Example 2-10, ({[2-(methylsulfanyl)ethoxy]carbonyl}oxy) methyl trans-4-[(1R)-1-(6-{[4-(difluoromethyl)pyridin-2-yl]amino}-4-methyl-2,3′-bipyridin-6′-yl)-1-hydroxyethyl]cyclo hexanecarboxylate], the pIC50 was greater than 9.30. Consider `Cc1cc(Nc2cc(C(F)F)ccn2)nc(-c2ccc([C@](C)(O)[C@H]3CC[C@H](C(=O)OC(C)OC(=O)c4cnn(C)c4)CC3)nc2)c1` (single isomer, unassigned) [Example 3-2a], for which the pIC50 was 7.72. With `Cc1cc(Nc2cc(C(F)F)ccn2)nc(-c2ccc([C@](C)(O)[C@H]3CC[C@H](C(=O)OCC[N+](C)(C)C)CC3)nc2)c1` [Example 1-10, 2-[({trans-4-[(1R)-1-(6-{[4-(difluoromethyl)pyridin-2-yl]amino}-4-methyl-2,3′-bipyridin-6′-yl)-1-hydroxyethyl]cyclohexyl}carbonyl)oxy]-N,N,N-trimethylethanaminium], the pIC50 is 8.77. Consider `CCCCCCCC[N+](CCCCCCCC)(CCCCCCCC)COC(=O)[C@H]1CC[C@H]([C@@](C)(O)c2ccc(-c3cc(C)cc(Nc4cc(C(F)F)ccn4)n3)cn2)CC1` [Example 5-8, N-{[({trans-4-[(1R)-1-(6-{[4-(difluoromethyl)pyridin-2-yl]amino}-4-methyl-2,3′-bipyridin-6′-yl)-1-hydroxyethyl]cyclohexyl}carbonyl)oxy]methyl}-N,N-dioctyloctan-1-aminium], for which the pIC50 is 8.60.

In general, pIC50 refers to the IC50 on a negative log10 scale, so that one unit is a factor of ten.
